Measurements: US20160220569A1, “CDK4/6 Inhibitor Dosage Formulations For The Protection Of Hematopoietic Stem And Progenitor Cells During Chemotherapy” (G1 Therapeutics, Inc., priority 2015, published 2016)
Where two headings read alike, the source gives them in different places.

Test: 14-day oral gavage toxicokinetic study in rats
Type: in vivo
Conditions: male, rat, plasma, po; for concentration at 0.5 h / concentration at 1 h / concentration at 4 h / concentration at 8 h / concentration at 12 h / concentration at 24 h / concentration at […] / concentration at 2 h: rats; for half-life: read-out: t½ (converted)
Protocol: Plasma was obtained from blood samples collected from rats in a composite sampling scheme, with 3 samples collected per sex, per dose, at each target collection time, as illustrated in Table 21 to Table 25. Samples were collected from the vehicle control group on Day 1 and Day 14 at 3 hour after administration. […] Blood samples were collected in tubes containing K3EDTA as an anticoagulant and placed on ice until processed to plasma via centrifugation. Samples were stored frozen at −80° C. until shipment to the bioanalytical laboratory for analysis.
The following parameters were determined:
Cmax: Maximum observed plasma concentration (ng/mL).
A value of 0 ng/mL was assigned to all values below the lower limit of quantitation (BLQ, <10.0 ng/mL).
AUC(0-inf): Area under the plasma concentration vs. time curve extrapolated from 0 to infinity (ng*h/mL), calculated as AUC(0-t)+AUC(t-inf) where AUC(t-inf) is calculated as last measurable concentration (CLast) divided by ke, where ke is the elimination rate constant determined by linear regression of the last three analytically measured points on the log plasma concentration vs. time curve. The selection criteria of the data points for inclusion in the calculation of ke required that at least three data points representing the terminal phase (after Tmax) were regressed and that R2≧0.850 when rounded.
CL: Clearance (L/h/kg), calculated as the dose divided by AUC(0-t).
Vd: Volume of distribution (L/kg), calculated as dose divided by the product of ke and AUC(0-inf).
Vdss: Steady state volume of distribution (L/kg), calculated as clearance […] mean residence time, where mean residence time is calculated as the area under the first moment curve divided by AUC(0-t).
t½: Elimination half-life (h), calculated as ln(2)/ke, where ke is the elimination rate constant determined by linear regression. Half-life was defined as not determined if regression criteria (specified in AUC(0-inf) above) were not met.
Cmax/Dose: Normalized Cmax, calculated as Cmax divided by total dose.
AUC/Dose: Normalized AUC, calculated as AUC(0-t) divided by total dose.
ii. Statistical Analysis Mean and standard deviation (SD) were calculated in Watson. Values of BLQ were assigned a value of 0 ng/mL for mean calculations. Concentration values and derived TK parameters were reported to three significant figures.

[1] = 5 mg/kg, oral 5 mg/kg, Study Day 1, Male
[2] = 5 mg/kg, oral 5 mg/kg, Study Day 14, Male

In the case of `CN1CCN(c2ccc(Nc3ncc4cc5n(c4n3)C3(CCCCC3)CNC5=O)nc2)CC1` [Compound 1, 2′-((5-(4-methylpiperazin-1-yl)pyridin-2-yl)amino)-7′,8′-dihydro-6′H-spiro[cyclohexane-1,9′-pyrazino[1′,2′:1,5]pyrrolo[2,3-d]pyrimidin]-6′-one], the concentration at 0.5 h (5 mg/kg, Individual Compound 1 Plasma Concentration, daily oral 5 mg/kg, Day 1, Male, 0.5 h) is reported as 225 ng/mL, the concentration at 1 h (5 mg/kg, Individual Compound 1 Plasma Concentration, daily oral 5 mg/kg, Day 1, Male, 1 h) is reported as 244 ng/mL and the concentration at 4 h (5 mg/kg, Individual Compound 1 Plasma Concentration, daily oral 5 mg/kg, Day 1, Male, 4 h) is reported as 562 ng/mL. The concentration at 8 h (5 mg/kg, Individual Compound 1 Plasma Concentration, daily oral 5 mg/kg, Day 1, Male, 8 h) was 235 ng/mL, the concentration at 12 h (5 mg/kg, Individual Compound 1 Plasma Concentration, daily oral 5 mg/kg, Day 1, Male, 12 h) was 206 ng/mL and the concentration at 24 h (5 mg/kg, Individual Compound 1 Plasma Concentration, daily oral 5 mg/kg, Day 1, Male, 24 h) was 26.5 ng/mL. It also gave a concentration at 0.5 h (5 mg/kg, Individual Compound 1 Plasma Concentration, daily oral 5 mg/kg, Day 14, Male, 0.5 h) of 205 ng/mL, a concentration at 1 h (5 mg/kg, Individual Compound 1 Plasma Concentration, daily oral 5 mg/kg, Day 14, Male, 1 h) of 254 ng/mL and a concentration at 4 h (5 mg/kg, Individual Compound 1 Plasma Concentration, daily oral 5 mg/kg, Day 14, Male, 4 h) of 512 ng/mL. The concentration at 12 h (5 mg/kg, Individual Compound 1 Plasma Concentration, daily oral 5 mg/kg, Day 14, Male, 12 h) was 169 ng/mL, the concentration at 24 h (5 mg/kg, Individual Compound 1 Plasma Concentration, daily oral 5 mg/kg, Day 14, Male, 24 h) was 11.1 ng/mL and the concentration at […] (5 mg/kg, Individual Compound 1 Plasma Concentration, daily oral 5 mg/kg, Day 14, Male, […]) was 26 ng/mL. The concentration at 0.5 h (5 mg/kg, Mean Compound 1 Plasma Concentration, oral 5 mg/kg, Day 1, 0.5 h, Male) was 237 ng/mL, the concentration at 1 h (5 mg/kg, Mean Compound 1 Plasma Concentration, oral 5 mg/kg, Day 1, 1 h, Male) was 194 ng/mL and the concentration at 2 h (5 mg/kg, Mean Compound 1 Plasma Concentration, oral 5 mg/kg, Day 1, 2 h, Male) was 254 ng/mL. For the same compound, the concentration at 4 h (5 mg/kg, Mean Compound 1 Plasma Concentration, oral 5 mg/kg, Day 1, 4 h, Male) was 408 ng/mL, the concentration at 8 h (5 mg/kg, Mean Compound 1 Plasma Concentration, oral 5 mg/kg, Day 1, 8 h, Male) was 276 ng/mL and the concentration at 12 h (5 mg/kg, Mean Compound 1 Plasma Concentration, oral 5 mg/kg, Day 1, 12 h, Male) was 195 ng/mL. The concentration at 24 h (5 mg/kg, Mean Compound 1 Plasma Concentration, oral 5 mg/kg, Day 1, 24 h, Male) was 25.6 ng/mL, the concentration at […] (5 mg/kg, Mean Compound 1 Plasma Concentration, oral 5 mg/kg, Day 1, […], Male) was 16 ng/mL and the concentration at 0.5 h (5 mg/kg, Mean Compound 1 Plasma Concentration, oral 5 mg/kg, Day 14, 0.5 h, Male) was 298 ng/mL. For the same compound, the concentration at 1 h (5 mg/kg, Mean Compound 1 Plasma Concentration, oral 5 mg/kg, Day 14, 1 h, Male) was 258 ng/mL, the concentration at 2 h (5 mg/kg, Mean Compound 1 Plasma Concentration, oral 5 mg/kg, Day 14, 2 h, Male) was 436 ng/mL and the concentration at 4 h (5 mg/kg, Mean Compound 1 Plasma Concentration, oral 5 mg/kg, Day 14, 4 h, Male) was 421 ng/mL. It also gave a concentration at 8 h (5 mg/kg, Mean Compound 1 Plasma Concentration, oral 5 mg/kg, Day 14, 8 h, Male) of 273 ng/mL, a concentration at 12 h (5 mg/kg, Mean Compound 1 Plasma Concentration, oral 5 mg/kg, Day 14, 12 h, Male) of 198 ng/mL and a concentration at 24 h (5 mg/kg, Mean Compound 1 Plasma Concentration, oral 5 mg/kg, Day 14, 24 h, Male) of 16.2 ng/mL. For the same compound, the concentration at […] (5 mg/kg, Mean Compound 1 Plasma Concentration, oral 5 mg/kg, Day 14, […], Male) was 27.2 ng/mL, the AUC(0-inf) [1] was 4850 ng·h/mL and the AUC(0-t) [1] was 4680 ng·h/mL. It also gave a Cmax [1] of 408 ng/mL, a Tmax [1] of 4 h and a half-life [1] of 4.52 h. It also gave an AUC(0-inf) [2] of 5120 ng·h/mL, an AUC(0-t) [2] of 5030 ng·h/mL and a Cmax [2] of 436 ng/mL. It also gave a Tmax [2] of 2 h, a half-life [2] of 3.77 h and a concentration at 1 h (15 mg/kg, Individual Compound 1 Plasma Concentration, daily oral 15 mg/kg, Day 1, Male, 1 h) of 614 ng/mL. It also gave a concentration at 2 h (15 mg/kg, Individual Compound 1 Plasma Concentration, daily oral 15 mg/kg, Day 1, Male, 2 h) of 759 ng/mL, a concentration at 4 h (15 mg/kg, Individual Compound 1 Plasma Concentration, daily oral 15 mg/kg, Day 1, Male, 4 h) of 1160 ng/mL and a concentration at 8 h (15 mg/kg, Individual Compound 1 Plasma Concentration, daily oral 15 mg/kg, Day 1, Male, 8 h) of 696 ng/mL. For the same compound, the concentration at 12 h (15 mg/kg, Individual Compound 1 Plasma Concentration, daily oral 15 mg/kg, Day 1, Male, 12 h) was 451 ng/mL, the concentration at […] (15 mg/kg, Individual Compound 1 Plasma Concentration, daily oral 15 mg/kg, Day 1, Male, […]) was 49.7 ng/mL and the concentration at 0.5 h (15 mg/kg, Individual Compound 1 Plasma Concentration, daily oral 15 mg/kg, Day 14, Male, 0.5 h) was 741 ng/mL. The concentration at 1 h (15 mg/kg, Individual Compound 1 Plasma Concentration, daily oral 15 mg/kg, Day 14, Male, 1 h) was 1020 ng/mL, the concentration at 2 h (15 mg/kg, Individual Compound 1 Plasma Concentration, daily oral 15 mg/kg, Day 14, Male, 2 h) was 1350 ng/mL and the concentration at 4 h (15 mg/kg, Individual Compound 1 Plasma Concentration, daily oral 15 mg/kg, Day 14, Male, 4 h) was 1160 ng/mL. For the same compound, the concentration at 8 h (15 mg/kg, Individual Compound 1 Plasma Concentration, daily oral 15 mg/kg, Day 14, Male, 8 h) was 1190 ng/mL, the concentration at 12 h (15 mg/kg, Individual Compound 1 Plasma Concentration, daily oral 15 mg/kg, Day 14, Male, 12 h) was 583 ng/mL and the concentration at 24 h (15 mg/kg, Individual Compound 1 Plasma Concentration, daily oral 15 mg/kg, Day 14, Male, 24 h) was 61.4 ng/mL. It also gave a concentration at […] (15 mg/kg, Individual Compound 1 Plasma Concentration, daily oral 15 mg/kg, Day 14, Male, […]) of 89.9 ng/mL, a concentration at 0.5 h (15 mg/kg, Mean Compound 1 Plasma Concentration, oral 15 mg/kg, Day 1, 0.5 h, Male) of 620 ng/mL and a concentration at 1 h (15 mg/kg, Mean Compound 1 Plasma Concentration, oral 15 mg/kg, Day 1, 1 h, Male) of 810 ng/mL. For the same compound, the concentration at 2 h (15 mg/kg, Mean Compound 1 Plasma Concentration, oral 15 mg/kg, Day 1, 2 h, Male) was 1060 ng/mL.
